From PubChem BioAssay AID1626 (SRMLSC, 2009)

Test system: M. tuberculosis H37Rv growth inhibition
Test: M. tuberculosis H37Rv growth inhibitors, H37Rv strain (AID 1626)
Conditions: for IC90: measured here: IC90 against H37Rv; for CC50: measured here: Vero cell cytotoxicity

SMILES	IC50 [µM]	IC90 [µM]	CC50 [µM]
Cc1c(-c2cccc(Cl)c2)nc2ccccc2c1C(=O)OCC(=O)Nc1ccc2c(c1)OCO2	10.9	> 100	38.8
COc1ccc(-c2csc(NC(C)c3nc4cc(Cl)c(N5CCCCC5)cc4n3CCOCCO)n2)cc1 (stereo not given)	7.74	> 100	> 40
Clc1ccc(OCCCNCc2ccccc2)c(Br)c1	23.2	25.1	> 40
O=C(CSc1nc(-c2ccccc2Cl)ns1)c1ccc(Cl)cc1	8.62	> 100	
CCCCn1c(O)c(C(=O)/C=C/c2ccc3c(c2)OCO3)c(=O)[nH]c1=O	4.53	7.66	> 40
CCOC(=O)Cc1ccc(NC(=O)c2ccc(C(C)(C)C)cc2)cc1	35.6	> 100	> 40
Cc1nc(SCc2cccc(F)c2)c2oc3ccccc3c2n1	0.588	18	
CCOC(=O)C(C)Sc1nnc(NC(=O)c2ccc(C)c([N+](=O)[O-])c2)s1 (stereo not given)	6.69	12.1	
COc1ccc(N2CCN(CC(=O)Nc3nc4c(s3)CC(C)CC4)CC2)cc1 (stereo not given)	4.42	49.1	
COc1ccc2ncc(OC(C)=O)cc2c1		> 100	
CCCCOC(=O)c1ccc(NC(=O)CSc2nnnn2C)cc1	19	> 100	
Cc1ccc(-c2csc(NC(=O)C[n+]3cc(-c4ccc(C)cc4)n4c3CCC4)n2)cc1	11.3	12.6	
CCN(CC)CCN1c2ccccc2Sc2ccc3ccccc3c21	10.4	18.9	> 40
CCCc1ccc(C2C3=C(CC(C)(C)CC3=O)NC3=C2C(=O)c2ccccc23)cc1 (stereo not given)	5.54	> 100	> 40
c1ccc2c(-c3nc(C4CCCCC4)no3)cc(-c3ccncc3)nc2c1	7	10.9	> 40
O=C(/C=C/c1ccccc1)Oc1cccc2cccnc12	7.94	9.54	37.2
CCCCCc1cc(=O)oc2c(C(CCN(CC)CC)c3ccc(OC)cc3)c(OC)cc(OC)c12 (stereo not given)	9.08	11.7	13
O=C(/C=C/c1ccc([N+](=O)[O-])s1)N1CCCCC1	6.4	10.6	> 40
O=C(CSc1nc2ccc(Cl)cc2[nH]1)Nc1ccc2c(c1)CCC2	29.8	> 100	> 40
CCOc1ccc(NC(=O)Nc2ccccc2SC)cc1			> 40
N#C/C(=C/c1ccc(N2CCCCC2)o1)C(=O)NCCc1c[nH]c2ccccc12	41	> 100	> 40

SMILES	IC50 [µM]	IC90 [µM]	CC50 [µM]
Cc1nc(N)nc(N)c1/C=C/C(C)(C)c1ccc(Cl)cc1	0.562	1.29	< 0.078
O=C(CSc1ccccn1)Nc1ccc2ccccc2c1	8.69	> 100	
Nc1ccc2cc(Br)ccc2c1	0.632	> 100	
COc1ccc(C(=O)CNc2ccc3ccccc3c2)cc1	4.74	> 100	
O=c1c2c(nc3c(-c4ccc(Cl)cc4)c[nH]n13)CCC2	12.9	25.6	18.9
Cc1ccc(C(=O)N/C(=C\c2ccc(-c3ccc(Br)cc3)o2)C(=O)NCCCN(C)C)cc1	15.5	18.2	6.45
O=[N+]([O-])c1cc(/C=N/N/C(=N/c2ccccn2)c2ccccn2)ccc1O	17.9	> 100	26.8
COC(=O)CN1C(c2ccc(OC)cc2)=Nc2ccc(Cl)cc2C1c1ccccc1 (stereo not given)	3.18	6.98	
Cc1[nH]n2c(=O)cc(-c3ccc([N+](=O)[O-])cc3)nc2c1-c1ccccc1	0.747	1.43	35.1
Cc1c(CN2CCC(CO)(CCOc3ccccc3)CC2)[nH]c2ccc(Cl)cc12	4.57	5.33	15.6
CCOC(=O)c1ccc(NCc2nc3ccccc3[nH]2)cc1	43.5	> 100	
O=C(Nc1nnc(-c2ccc(Cl)s2)o1)C1CCCCC1	3.84	> 100	> 40
CCn1c(NC(=O)c2cccs2)nc2ccccc21	5.32	> 100	
COc1ccc(CCNC(=O)NC23CC4CC(CC(C4)C2)C3)cc1	12.9	> 100	> 40
O=C(COc1ccc(Nc2ccccc2)cc1)OCC(=O)N1CCCCC1	19.5	> 100	
CN1CCN(c2ccccc2NC(=O)c2cc3c(s2)-c2ccccc2OC3)CC1	8.62	17.7	10.7
Cc1[nH]n(C2=NCCS2)c(=O)c1N=Nc1cccc(C(F)(F)F)c1	0.387	1.47	9.46
CC(C)c1ccc(C2C3=C(CC(C)(C)CC3=O)NC3=C2C(=O)c2ccccc23)cc1 (stereo not given)	50.6	> 100	> 40
Cc1ccc(C(=O)Nc2nnc(-c3ccco3)o2)cc1C	< 0.195	> 100	> 40
Cc1cc(=O)[nH]c(SCC(=O)C23CC4CC(CC(C4)C2)C3)c1C#N		> 100	21.2
CCOc1ccc(NCc2ccccc2OCc2cccc(F)c2)cc1	8.84	> 100	

SMILES	IC50 [µM]	IC90 [µM]	CC50 [µM]
Cc1sc(-n2c(C)cc(/C=N/n3cnnc3)c2C)c(C#N)c1C			> 40
COc1cnc(-c2ccccn2)nc1Sc1ccc(F)cc1	< 0.195	12.9	19.2
CCN1CCN(Cc2ccc(NC(=O)c3ccc(C)c(NC(=O)c4c[nH]c5cc(C(F)(F)F)ccc5c4=O)c3)cc2C(F)(F)F)CC1	3.86	4.72	3.28
CCn1c(NC(=O)C2CCCCC2)nc2ccccc21	1.86	> 100	> 40
COc1cc(/C=C(\C#N)C(=O)NC2CCCCC2C)ccc1OS(=O)(=O)c1ccc(C)cc1 (stereo not given)		> 100	9.49
CCOC(=O)c1ccc(NC(=O)c2ccc(OC(C)C)c(OC)c2)cc1	14.1	28.2	
CCOC(=O)C(Cc1ccccc1)C(=O)Nc1cccc2ccccc12 (stereo not given)	4	12.7	
CCOC(=O)c1ccc(N2CSC3=C(C#N)C(c4cccs4)CC(=O)N3C2)cc1 (stereo not given)	30.5	> 100	
O=C(NC1CCCCC1)C(c1ccc2ncccc2c1)N(Cc1ccccc1)C(=O)c1ccc2c(c1)OCCO2 (stereo not given)	19	28.2	
O=C(COc1ccc2ccccc2c1)Nc1nccs1		> 100	
Cc1nc(SCc2ccccc2F)c2oc3ccccc3c2n1		> 100	
C/C=C/c1ccc(OCC(=O)OCc2csc(Nc3ccc(C)cc3)n2)c(OC)c1	3.83	8.62	
CCOc1ccc2nc(SCC(=O)Nc3ccc4c(c3)OCO4)sc2c1	25	> 100	
Cc1cc(=O)oc2cc(Oc3ccc([N+](=O)[O-])cc3C(F)(F)F)ccc12	12.2	> 100	
N=c1c2c(-c3ccccc3)c(-c3ccccc3)n(Cc3ccco3)c2ncn1Cc1ccccc1	2.75	3.17	6.49
Cc1cc(C)n(-c2nc(SCC(=O)O)c3c4c(sc3n2)COC(C)(C)C4)n1	9.72	> 100	> 40
O=C(OCc1nc2ccccc2s1)c1ccc(Br)o1	12.7	> 100	
Nc1nc(CCl)nc(Nc2ccccc2)n1	31.2	> 100	3.32
Cc1ccc(C)c(N=Nc2ccc(O)c3ncccc23)c1	68.5	> 100	1.85
Cn1c(-c2ccccc2)c(C(=O)CCl)c2ccccc21	1.69	4.57	4.07
C[C@H](NC(=O)c1[nH]cnc1C(=O)Nc1ccccc1)C(=O)OC(C)(C)C	1.68	5.62	> 40

SMILES	IC50 [µM]	IC90 [µM]	CC50 [µM]
CCNC(=O)COC(=O)c1ccc(-c2nc3ccccc3s2)s1	7.63	15	> 40
Cc1c2ccncc2c(C)c2c1[nH]c1ccccc12	0.465	0.667	0.793
CCOC(=O)C(C)Sc1ncc(-c2ccc(Cl)cc2)cn1 (stereo not given)	2.71	5.04	
Cc1nc(-c2ccccn2)nc(SCC(=O)c2ccc(F)cc2)c1Cl	7.37	13.8	> 40
O=C(c1ccccc1)N1CCN(c2ccc([N+](=O)[O-])cc2-n2cccc2)CC1	4.17	7.26	> 40
O=C(C[n+]1cc(-c2ccccc2)n2c1CCC2)Nc1nc(-c2ccc(F)cc2)cs1	19.9	42.8	
NC1=NC[C@H](Cc2ccc(O)cc2)N1CCCCC1CCCCC1	5.33	7.7	
Cc1ccc(C2=Nc3ccccc3SC(c3cccc([N+](=O)[O-])c3)C2)cc1 (stereo not given)	3.71	5.74	33
COc1cc(CNC(C)c2ccccc2)cc(Cl)c1OCC(=O)Nc1ccccc1 (stereo not given)	3.1	3.39	> 40
Cc1cc(N2CCN(c3ccccc3)CC2)nc(-n2nc(C)cc2C)n1	8.84	47.3	18.3
O=C(Nc1ccc(N2CCN(C(=O)c3ccco3)CC2)cc1)C(c1ccccc1)c1ccccc1	12	14.1	> 40
CCOC(=O)CSc1ccc(-c2nc3cc(C)c(C)cc3[nH]2)cn1	1.09	2.24	
COc1ccc(NC(=O)c2ccc(OC(F)F)cc2)cc1Cl	20.7	> 100	
Cc1cc(NC(=O)c2ccccc2)n(-c2nc3ccccc3[nH]2)n1	60.4	> 100	27.9
Cc1cc(NCCCn2ccnc2)n2nc(-c3ccc(Cl)cc3)cc2n1	11.1	15.8	> 40
Cc1cc(C)cc(OCc2nnc(SCC(=O)OC(C)C)o2)c1		> 100	
CC(=O)Nc1nc(-c2cc([N+](=O)[O-])cs2)cs1	< 0.195	> 100	
CCOc1ccc(NC(=O)NC23CC4CC(CC(C4)C2)C3)cc1	2.58	> 100	
